Measurements taken from patent publication US11884710B2, “Peptide compounds and methods of use in wound healing” (priority 2013, dated 2024).

What was measured:
[1] = tested on: cytokines in corneal lysates; assay: Corneal cytokines after intrastromal injection (MILLIPLEX MAP mouse cytokine assay); assay type: in vivo; details: intrastromal 0.5 μl, 10^−4, 10^−5, 10^−6 M; 24 and 48 hours
Method: Corneas were injected intrastromally with 0.5 μl of peptide 95-122 at a final concentration of 10^−4 M, 10^−5 M, and 10^−6 M and vehicle (saline) control. Corneas were collected and flash frozen at 24 hours and 48 hours. Corneal lysates were analyzed for cytokines using the MILLIPLEX® MAP mouse cytokine assay for IL-7(A), IL-15 (B), IFN-γ (C), MIP1-α (D) (EMD Millipore Corp., Billerica, Mass.). The means of independent experimental values are shown±SEM. ***P<0.001, **P<0.01, *P<0.05 by unpaired t-test as compared to vehicle treated controls. […] Corneas were injected intrastromally with 0.5 μl of peptide 95-122 at a final concentration of 10^−4 M, 10^−5 M, and 10^−6 M and vehicle (saline) control. Corneas were collected and flash frozen at 24 hours and 48 hours. Corneal lysates were analyzed for cytokines using the MILLIPLEX® MAP mouse cytokine assay for MIP1-β (EMD Millipore Corp., Billerica, Mass.). **P<0.01, *P<0.05 by unpaired t-test as compared to vehicle treated controls. […] Corneas were injected intrastromally with 0.5 μl of peptide 95-122 at a final concentration of 10^−4 M, 10^−5 M, and 10^−6 M and vehicle (saline) control. Corneas were collected and flash frozen at 24 hours and 48 hours. Corneal lysates were analyzed for cytokines using the MILLIPLEX® MAP mouse cytokine assay for KC (A), IL-1β (B), and GM-CSF (C) (EMD Millipore Corp., Billerica, Mass.). **P<0.01, *P<0.05 by unpaired t-test as compared to vehicle treated controls.

[2] = tested on: P. aeruginosa (ATCC 27853); assay: Mouse model of Pseudomonas (bacterial) keratitis; assay type: in vivo; details: 48 hours post-infection
Method: A circular wound was created on the mouse cornea by removing the epithelium and infected with 10^5 colony forming units (CFU) of P. aeruginosa (ATCC® 27853™ (American Type Culture Collection, Manassas, Va.)). Infected wounds were treated with saline (0.9% sodium chloride, vehicle control) or saline containing indicated concentrations of peptide every 15 minutes for 2 hours, then every 30 minutes for 3 hours on the first day. Infected wounds were treated twice on the second day and once on the third day. Mice were killed at 48 hours post-infection, and CFU/eye were quantified. The means were plotted and are representative of 5 to 9 mice per group. Mann Whitney test was performed for each group as compared to the saline control group. *P=0.014. In compound names such as BCC02-5RMP used herein, “R” represents arginine, and “MP” represents a small PEG molecule as defined elsewhere herein (such as, for example but not by way of limitation, “AEEP”).
(§1) A circular wound was created on the mouse cornea by removing the epithelium, and the wound was infected with 10^5 CFU of P. aeruginosa (ATCC® 27853™ (American Type Culture Collection, Manassas, Va.)). Infected wounds were treated with saline or saline containing indicated concentrations (2, 5, 10, and 20 mg/ml) of peptide every 30 minutes for 6 hours on the first day. Infected wounds were treated twice on the second day and once on the third day. Mice were killed at 48 hours post-infection, and the CFU/eye were quantified. The means are plotted and are representative of 5 mice per group. Mann Whitney test was performed for each group as compared to the saline control group. *P=0.015 and **P=0.097.
as §1, with “representative of 4 to 5 mice” for “representative of 5 mice”, “control group.” for “control group. *P=0.015 and **P=0.097.”
as §1, with “group. **P=0.0079 by” for “group.”, “test” for “test was performed for each group”, “group.” for “group. *P=0.015 and **P=0.097.”
A circular wound (2 mm) was created on the mouse cornea by removing the epithelium and infecting the wound with 10^5 CFU of P. aeruginosa (ATCC® 27853™ (American Type Culture Collection, Manassas, Va.)). Infected wounds were treated with saline or saline containing indicated concentrations of peptide every 15 minutes for 2 hours, then every 30 minutes for 3 hours on the first day. […] Mice were killed at 48 hours post-infection, and the colony forming units per eye (CFU/eye) were quantified. […]

Sequence: LDREANLTSSVTILPLPLQNATVEAGTR (listed as Homo sapiens) [Peptide 95-122]
- GM-CSF in corneal lysates [1]: significantly increases
- IFN-γ in corneal lysates [1]: significantly increases
- IL-7 in corneal lysates [1]: significantly increases
- IL-10 in corneal lysates [1]: significantly increases
- IL-15 in corneal lysates [1]: significantly increases
- KC in corneal lysates [1]: significantly increases
- MIP1-α in corneal lysates [1]: significantly increases
- MIP1-β in corneal lysates [1]: significantly increases

Sequence: GTRCQVAGWGSWHSGGRLSRFPRFVNV (derivative of peptide of CAP37 protein) [Peptide 120-146WH]
- CFU/eye vs saline, in words ([2]; topical doses of 10 and 20 mg/ml): significantly reduced the CFU/eye

Sequence: GTRCQVAGWGSWRSGGRLSRFPRFVNV (derivative of peptide of Homo sapiens CAP37 protein) [Peptide 120-146WR]
- infection (CFU/eye) vs saline, in words ([2]; topical 5, 10, and 20 mg/ml): significantly reduced infection
